Columns and labels:
[1] = tested on: Corynespora cassiicola G413A mutant; test: Microtest: activity against Corynespora cassiicola G413A mutant in the microtiterplate test; format: cell-based; conditions: 31 ppm, relative to active compound-free control (100%)
Description: (§1) The active compounds were formulated separately as a stock solution having a concentration of 10000 ppm in dimethyl sulfoxide.
(§2) The stock solutions were mixed according to the ratio, pipetted onto a micro titer plate (MTP) and diluted with water to the stated concentrations.
(§3) The measured parameters were compared to the growth of the active compound-free control variant (100%) and the fungus-free blank value to determine the relative growth in % of the pathogens in the respective active compounds.
A spore suspension of Corynespora cassiicola in an aqueous biomalt or yeast-bactopeptone-sodiumacetate solution was then added.

Cercospora zeae maydis = test: Microtest: activity against Cercospora zeae maydis in the microtiterplate test; format: cell-based; conditions: 31 ppm; relative to active compound-free control (100%)
Description: as §1, §2, §3
A spore suspension of Cercospora zeae maydis in an aqueous biomalt or yeast-bactopeptone-sodiumacetate solution was then added.

Cc1ccc2c(c1)NC(C)(C)N=C2c1cnc(C(F)F)c(C)c1 [Ex-31]
growth of the pathogen (relative growth in %) [1]: 19%

CCCCN1c2c(F)cccc2C(c2cnc(C(F)F)c(C)c2)=NC1(C)C [Ex-14]
growth of the pathogen (relative growth in %) [1]: 19%

Cc1cc(C2=NC(C)(C)N(C#N)c3ccccc32)cnc1C(F)F [Ex-27]
growth of the pathogen (relative growth in %) [1]: 19%

Cc1cc(C2=NC(C)(C)Nc3c(Cl)cccc32)cnc1C [Ex-23]
growth of the pathogen (relative growth in %) [1]: 19%

Cc1cc(C2=NC(C)(C)N(C)c3c(C)cccc32)cnc1C(F)F [Ex-53]
growth of the pathogen (relative growth in %) (Cercospora zeae maydis): 17%
growth of the pathogen (relative growth in %) [1]: 19%

Cc1cc(C2=NC(C)(C)N(C)c3c(Cl)cccc32)cnc1C(F)F [Ex-9]
growth of the pathogen (relative growth in %) (Cercospora zeae maydis): 17%
growth of the pathogen (relative growth in %) [1]: 19%

Cc1cc(C2=NC(C)(C)Nc3c(Cl)cccc32)cnc1C(F)F [Ex-8]
growth of the pathogen (relative growth in %) [1]: 19%

Cc1cc(C2=NC(C)(C)N(C)c3c2ccc(F)c3F)cnc1C(F)F [Ex-91]
growth of the pathogen (relative growth in %) (Cercospora zeae maydis): 17%
growth of the pathogen (relative growth in %) [1]: 19%

C#Cc1cccc2c1NC(C)(C)N=C2c1cnc(C(F)F)c(C)c1 [Ex-81]
growth of the pathogen (relative growth in %) (Cercospora zeae maydis): 17%

Cc1cc(C2=NC(C)(c3ccccc3)N(C)c3c(F)cccc32)cnc1C(F)F (racemic) [Ex-60]
growth of the pathogen (relative growth in %) (Cercospora zeae maydis): 17%
growth of the pathogen (relative growth in %) [1]: 19%

Cc1cc(C2=NC(C)(C)N(C#N)c3c(Cl)cccc32)cnc1C [Ex-28]
growth of the pathogen (relative growth in %) [1]: 19%

Cc1cc(C2=NC(C)(C)N(C)c3c(Br)cccc32)cnc1C(F)F [Ex-50]
growth of the pathogen (relative growth in %) (Cercospora zeae maydis): 17%
growth of the pathogen (relative growth in %) [1]: 19%

Cc1cc(C2=NC(C)(CC(C)C)N(C#N)c3c(F)cccc32)cnc1C(F)F (racemic) [Ex-41]
growth of the pathogen (relative growth in %) (Cercospora zeae maydis): 17%
growth of the pathogen (relative growth in %) [1]: 19%

CCC1(C)N=C(c2cnc(C(F)F)c(C)c2)c2cccc(F)c2N1C (racemic) [Ex-29]
growth of the pathogen (relative growth in %) (Cercospora zeae maydis): 17%
growth of the pathogen (relative growth in %) [1]: 19%

Cc1cc(C2=NC(C)(C)N(C#N)c3cc(F)ccc32)cnc1C(F)F [Ex-55]
growth of the pathogen (relative growth in %) [1]: 19%

Cc1cc(C2=NC(C)(C)N(C#N)c3ccccc32)cnc1C [Ex-35]
growth of the pathogen (relative growth in %) [1]: 19%

Cc1cc(C2=NC(C)(C3CC3)N(C)c3c(F)cccc32)cnc1C(F)F (racemic) [Ex-56]
growth of the pathogen (relative growth in %) (Cercospora zeae maydis): 17%
growth of the pathogen (relative growth in %) [1]: 19%

Cc1cc(C2=NC(C)(c3ccccn3)N(C)c3c(F)cccc32)cnc1C(F)F (racemic) [Ex-61]
growth of the pathogen (relative growth in %) (Cercospora zeae maydis): 17%
growth of the pathogen (relative growth in %) [1]: 19%

CCN1c2c(F)cccc2C(c2cnc(C(F)F)c(C)c2)=NC1(C)C [Ex-7]
growth of the pathogen (relative growth in %) [1]: 19%

Cc1cc(C2=NC(C)(C)Nc3c(F)cccc32)cnc1C(F)F [Ex-5]
growth of the pathogen (relative growth in %) (Cercospora zeae maydis): 17%
growth of the pathogen (relative growth in %) [1]: 19%

Cc1cc(C2=NC(C)(C)N(C)c3c(Cl)cccc32)cnc1C [Ex-22]
growth of the pathogen (relative growth in %) (Cercospora zeae maydis): 17%
growth of the pathogen (relative growth in %) [1]: 19%

CCC1(C)N=C(c2cnc(C(F)F)c(C)c2)c2cccc(F)c2N1 (racemic) [Ex-25]
growth of the pathogen (relative growth in %) [1]: 19%

Cc1cc(C2=NC(C)(CC(C)C)Nc3c(F)cccc32)cnc1C(F)F (racemic) [Ex-26]
growth of the pathogen (relative growth in %) [1]: 19%

CCCN1c2c(F)cccc2C(c2cnc(C(F)F)c(C)c2)=NC1(C)C [Ex-13]
growth of the pathogen (relative growth in %) [1]: 19%

Cc1ccc2c(c1)N(C)C(C)(C)N=C2c1cnc(C(F)F)c(C)c1 [Ex-40]
growth of the pathogen (relative growth in %) [1]: 19%

Cc1cc(C2=NC(C)(C)N(C)c3cc(Cl)ccc32)cnc1C(F)F [Ex-38]
growth of the pathogen (relative growth in %) (Cercospora zeae maydis): 17%
growth of the pathogen (relative growth in %) [1]: 19%

Cc1cc(C2=NC(C)(CC(C)C)N(C)c3c(F)cccc32)cnc1C(F)F (racemic) [Ex-32]
growth of the pathogen (relative growth in %) [1]: 19%

CC(=O)N1c2c(F)cccc2C(c2cnc(C(F)F)c(C)c2)=NC1(C)C [Ex-20]
growth of the pathogen (relative growth in %) [1]: 19%

Cc1cc(C2=NC(C)(C)N(C)c3cc(F)ccc32)cnc1C(F)F [Ex-36]
growth of the pathogen (relative growth in %) [1]: 19%

Cc1cc(C2=NC(C)(C)N(CC(C)C)c3c(F)cccc32)cnc1C(F)F [Ex-15]
growth of the pathogen (relative growth in %) [1]: 19%

Cc1cc(C2=NC(C)(C)N(C)c3c(F)cccc32)cnc1C(F)F [Ex-6]
growth of the pathogen (relative growth in %) (Cercospora zeae maydis): 17%
growth of the pathogen (relative growth in %) [1]: 19%
